Biological target: T1, MAGL protein (Homo sapiens, UniProt Q99685)
T1 sequence (Q99685 1-303): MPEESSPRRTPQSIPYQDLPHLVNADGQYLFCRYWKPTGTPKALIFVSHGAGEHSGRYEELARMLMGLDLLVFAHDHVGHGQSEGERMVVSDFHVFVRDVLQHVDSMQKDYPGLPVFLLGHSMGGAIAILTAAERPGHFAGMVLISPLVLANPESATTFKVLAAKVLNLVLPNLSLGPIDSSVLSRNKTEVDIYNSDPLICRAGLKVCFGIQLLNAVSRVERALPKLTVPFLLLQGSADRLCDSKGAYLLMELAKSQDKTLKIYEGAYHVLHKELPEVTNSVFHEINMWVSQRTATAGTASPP
Test: 2-AG assay: MAGL inhibitory activity by hydrolysis of 2-arachidonoylglycerol to arachidonic acid, followed by mass spectrometry
Assay type: biochemical
Details: 8 μM 2-arachidonoylglycerol, 15 min preincubation, 30 min reaction at RT, RapidFire MS readout
Summary of the method: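 MAGL was preincubated 15 min at RT with compound (12.5 to […], 3-fold steps) in 50 mM TRIS, 1 mM EDTA, 0.01% Tween-20, 2.5% DMSO. The reaction ran 30 min at RT with 8 μM 2-AG. Arachidonic acid was quantified by RapidFire SPE-MS/MS against a d8-arachidonic acid internal standard.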

Row | SMILES | IC50
1 | O=C(N1CC(c2ccc([C@H]3C[C@H](C(F)F)C3)nc2)C1)N1CC2(CC(c3nnc(C4CC4)[nH]3)C2)C1 [compound 301] | 1.69 nM
2 | COc1cc(C(F)(F)F)ccc1COC1CN(C(=O)N2CC3(CC(c4nnc(C5CC5)[nH]4)C3)C2)C1 [compound 307] | 0.44 nM
3 | N#Cc1c(OC2CN(C(=O)N3CC4(CC(c5nnc(C6CC6)[nH]5)C4)C3)C2)cccc1C1CC1 [compound 310] | 2.3 nM
4 | O=C(N1CC(Oc2ccc(C3CC3)cc2)C1)N1CC2(CC(c3nnc(C4(O)CC4)[nH]3)C2)C1 [compound 312] | 2.97 nM
5 | O=C(N1CC(Oc2ccc(C3CC3)cc2F)C1)N1CC2(CC(c3nnc(C4(O)CC4)[nH]3)C2)C1 [compound 313] | 4.59 nM
6 | N#Cc1cc(C2CC2)ccc1OC1CN(C(=O)N2CC3(CC(c4nnc(C5(O)CC5)[nH]4)C3)C2)C1 [compound 317] | 7.18 nM
7 | COC(=O)C(C)(C)c1cccc(OC2CN(C(=O)N3CC4(CC(c5nnc(C6CC6)[nH]5)C4)C3)C2)c1 [compound 318] | 7.3 nM
8 | O=C(N1CC(Oc2ccc(C(F)(F)F)c(C3CC3)c2)C1)N1CC2(CC(c3nnc(C4(O)CC4)[nH]3)C2)C1 [compound 319] | 8.04 nM
9 | O=C(N1CC(OCc2ccc(F)cc2Cl)C1)N1CC2(CC(c3nnc(C4CC4)[nH]3)C2)C1 [compound 320] | 8.28 nM
10 | O=C(N1CC(OCc2ccc(C(F)(F)F)cc2F)C1)N1CC2(CC(c3nnc(C4(O)CC4)[nH]3)C2)C1 [compound 324] | 14.3 nM
11 | O=C(N1CC(Oc2ccc(Cl)c(C3CC3)c2)C1)N1CC2(CC(c3nnc(C4(O)CC4)[nH]3)C2)C1 [compound 325] | 14.7 nM
12 | O=C(N1CC(OCC2CCC(F)(F)CC2)C1)N1CC2(CC(c3nnc(C4CC4)[nH]3)C2)C1 [compound 326] | 22.8 nM
13 | O=C(N1CC(OCC2(C(F)(F)F)CC2)C1)N1CC2(CC(c3nnc(C4CC4)[nH]3)C2)C1 [compound 331] | 109 nM
14 | CS(=O)(=O)c1cccc(COC2CN(C(=O)N3CC4(CC(c5nnc(C6CC6)[nH]5)C4)C3)C2)c1 [compound 334] | 272 nM
15 | O=C(N1CC(OCc2ccc(C(F)(F)F)cc2F)C1)N1CC2(CC(c3nnc(C(O)C(F)(F)F)[nH]3)C2)C1 (stereo not drawn) [compound 336] | 55.8 nM
16 | CS(=O)(=O)c1ccc(-c2ccc(C3CN(C(=O)N4CC5(CC(c6nnc(C7CC7)[nH]6)C5)C4)C3)cc2)c(Cl)c1 [compound 338] | 0.09 nM
17 | O=C(N1CC(C23CC(NCC4(C(F)(F)F)CC4)(C2)C3)C1)N1CC2(CC(c3nnc(C4CC4)[nH]3)C2)C1 [compound 342] | 0.49 nM
18 | CC(C)(C)Cc1nnc(C23CC(C4CN(C(=O)N5CC6(CC(c7nnc(C8CC8)[nH]7)C6)C5)C4)(C2)C3)o1 [compound 343] | 0.97 nM
19 | O=C(N1CC(C23CC(c4nnc(C5CC5)o4)(C2)C3)C1)N1CC2(CC(c3nnc(C4CC4)[nH]3)C2)C1 [compound 345] | 9.15 nM
20 | O=C(N1CC2(CCC(Oc3cc(Cl)ccc3Cl)CC2)C1)N1CC2(CC(c3nnc(C4(O)CC4)[nH]3)C2)C1 [compound 346] | 0.13 nM
21 | O=C(N1CC(COc2ccc(C(F)(F)F)cc2F)C1)N1CC2(CC(c3nnc(C4CC4)[nH]3)C2)C1 [compound 347] | 0.31 nM
22 | O=C(N1CC(CCc2ccc(C(F)(F)F)cc2F)C1)N1CC2(CC(c3nc(C4(O)CC4)n[nH]3)C2)C1 [compound 349] | 2.48 nM
23 | CS(=O)(=O)c1ccc(Cl)cc1OC1CCC2(CC1)CN(C(=O)N1CC3(CC(c4nnc(C5CC5)[nH]4)C3)C1)C2 [compound 350] | 3.43 nM
24 | O=C(N1CC2(CCC(Nc3cnc(C(F)(F)F)cn3)CC2)C1)N1CC2(CC(c3nnc(C4CC4)[nH]3)C2)C1 [compound 351] | 3.59 nM

Second part, the compound after the results:

Row | IC50 | SMILES
25 | 0.05 nM | CC(C)(C)Cc1ccc(C2CN(C(=O)N3CC4(CC(c5nnc(C6CC6)[nH]5)C4)C3)C2)cn1 [compound 299]
26 | 1 nM | O=C(N1CC(c2ccc([C@H]3C[C@H](C(F)(F)F)C3)nc2)C1)N1CC2(CC(c3nnc(C4CC4)[nH]3)C2)C1 [compound 300]
27 | 0.48 nM | O=C(N1CC(c2ccc(N3CC4(CCCC4)C3)nc2)C1)N1CC2(CC(c3nnc(C4CC4)[nH]3)C2)C1 [compound 302]
28 | 2.2 nM | O=C(N1CC(OCc2ccc(S(=O)(=O)C(F)(F)F)cc2F)C1)N1CC2(CC(c3nnc(C4CC4)[nH]3)C2)C1 [compound 309]
29 | 2.35 nM | O=C(N1CC(OCc2ccc(C(F)(F)F)cc2F)C1)N1CC2(CC(c3nnc(C4CC4)[nH]3)C2)C1 [compound 311]
30 | 4.76 nM | O=C(N1CC(Oc2ccc(C(F)(F)F)nn2)C1)N1CC2(CC(c3nnc(C4CC4)[nH]3)C2)C1 [compound 314]
31 | 4.93 nM | O=C(N1CC(OCc2ccc(OC(F)(F)F)cc2)C1)N1CC2(CC(c3nnc(C4CC4)[nH]3)C2)C1 [compound 315]
32 | 6.21 nM | O=C(N1CC(OCc2ccc(S(=O)(=O)C(F)(F)F)cc2)C1)N1CC2(CC(c3nnc(C4CC4)[nH]3)C2)C1 [compound 316]
33 | 10.8 nM | O=C(N1CC(OCc2cccc(S(=O)(=O)C(F)(F)F)c2)C1)N1CC2(CC(c3nnc(C4CC4)[nH]3)C2)C1 [compound 321]
34 | 11.7 nM | O=C(N1CC(Oc2cccc(C3CC3)c2F)C1)N1CC2(CC(c3nnc(C4(O)CC4)[nH]3)C2)C1 [compound 322]
35 | 12.3 nM | O=C(N1CC(Oc2ccc(C(F)(F)F)cc2)C1)N1CC2(CC(c3nnc(C4(O)CC4)[nH]3)C2)C1 [compound 323]
36 | 24.9 nM | O=C(N1CC(OCC2CC3C(C2)C3(F)F)C1)N1CC2(CC(c3nnc(C4CC4)[nH]3)C2)C1 (stereo not drawn) [compound 327]
37 | 35.4 nM | O=C(N1CC(Oc2cnc(Cl)c(C3CC3)c2)C1)N1CC2(CC(c3nnc(C4CC4)[nH]3)C2)C1 [compound 328]
38 | 38.1 nM | O=C(N1CC(OCc2cncc(C(F)(F)F)c2)C1)N1CC2(CC(c3nnc(C4CC4)[nH]3)C2)C1 [compound 329]
39 | 59.9 nM | CS(=O)(=O)c1ccc(COC2CN(C(=O)N3CC4(CC(c5nnc(C6CC6)[nH]5)C4)C3)C2)c(F)c1 [compound 330]
40 | 159 nM | O=C(N1CC(OCc2ccc(C(F)(F)F)nc2)C1)N1CC2(CC(c3nnc(C4CC4)[nH]3)C2)C1 [compound 332]
41 | 159 nM | CS(=O)(=O)c1ccc(COC2CN(C(=O)N3CC4(CC(c5nnc(C6CC6)[nH]5)C4)C3)C2)cc1 [compound 333]
42 | 467 nM | CS(=O)(=O)c1ccccc1COC1CN(C(=O)N2CC3(CC(c4nnc(C5CC5)[nH]4)C3)C2)C1 [compound 335]
43 | 0.07 nM | CS(=O)(=O)c1cc(Cl)ccc1-c1ccc(C2CN(C(=O)N3CC4(CC(c5nnc(C6CC6)[nH]5)C4)C3)C2)cc1 [compound 337]
44 | 0.16 nM | COC(=O)c1ccccc1-c1ccc(C2CN(C(=O)N3CC4(CC(c5nnc(C6CC6)[nH]5)C4)C3)C2)cc1 [compound 339]
45 | 1.09 nM | NC(=O)c1ccccc1-c1ccc(C2CN(C(=O)N3CC4(CC(c5nnc(C6CC6)[nH]5)C4)C3)C2)cc1 [compound 340]
46 | 0.12 nM | O=C(N1CC(C23CC(CNC4(C(F)(F)F)CC4)(C2)C3)C1)N1CC2(CC(c3nnc(C4CC4)[nH]3)C2)C1 [compound 341]
47 | 7.59 nM | O=C(N1CC(C23CC(c4nnc(CC(F)(F)F)o4)(C2)C3)C1)N1CC2(CC(c3nnc(C4CC4)[nH]3)C2)C1 [compound 344]
48 | 0.63 nM | O=C(N1CC2(CCC(NS(=O)(=O)c3cccc(OC(F)(F)F)c3)CC2)C1)N1CC2(CC(c3nnc(C4CC4)[nH]3)C2)C1 [compound 348]
